Test results published in patent US20100099561A1, “HETEROBICYCLIC ALKYLTHIO-BRIDGED ISOXAZOLINES” (E.I. DU PONT DE NEMOURS AND COMPANY, priority 2008, published 2010).

Key:
Assay type in all cases: in vivo
[1] = test system: nightshade (eastern black nightshade, Solanum ptycanthum); assay: Test B preemergence, nightshade; conditions: scale 0 to 100
In short: (§1)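 Seeds sown in loam–sand blend and treated preemergence with compounds in a non-phytotoxic solvent mixture containing surfactant. Plants kept in greenhouse 13–15 days, then visually rated against controls on a 0 (no effect) to 100 (complete control) scale.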

[2] = test system: large crabgrass (Digitaria sanguinalis); assay: Test B preemergence, large crabgrass; conditions: scale 0 to 100
In short: as §1

[3] = test system: bermudagrass (Cynodon dactylon); assay: Test B preemergence, bermudagrass; conditions: scale 0 to 100
In short: as §1

[4] = test system: giant foxtail (Setaria faberii); assay: Test B preemergence, giant foxtail; conditions: scale 0 to 100
In short: as §1

corn (Zea mays) [5] = assay: Test A postemergence, corn; conditions: 0 to 100 scale (0 no effect, 100 complete control)
In short: (§2)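 Visual injury rating, 0 = no effect to 100 = complete control, made roughly ten days after treatment by comparison with untreated controls. Preemergence: directed soil spray onto freshly planted loam/sand. Postemergence: foliar application at one- to two-leaf stage, 2–10 cm height.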

[6] = test system: johnsongrass (Sorghum halepense); assay: Test B preemergence, johnsongrass; conditions: scale 0 to 100
In short: as §1

[7] = test system: blackgrass (Alopecurus myosuroides); assay: Test B preemergence, blackgrass; conditions: scale 0 to 100
In short: as §1

[8] = test system: green foxtail (Setaria viridis); assay: Test B preemergence, green foxtail; conditions: scale 0 to 100
In short: as §1

wild oat (Avena fatua) = assay: Test B preemergence, wild oat; conditions: scale 0 to 100
In short: as §1

[9] = test system: morningglory (Ipomoea coccinea); assay: Test B preemergence, morningglory; conditions: scale 0 to 100
In short: as §1

[10] = test system: yellow nutsedge (Cyperus esculentus); assay: Test B preemergence, yellow nutsedge; conditions: scale 0 to 100
In short: as §1

[11] = test system: umbrella sedge (Cyperus difformis); assay: Test B flooded paddy test, umbrella sedge; conditions: Flood, scale 0 to 100
In short: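 2-leaf plants; pots flooded 3 cm above soil; compound added to paddy water; depth maintained. Greenhouse 13–15 d. Visual rating vs controls, 0 (no effect) to 100 (complete control); dash = no result.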

[12] = test system: wheat (Triticum aestivum); assay: Test A postemergence, wheat; conditions: 0 to 100 scale (0 no effect, 100 complete control)
In short: as §2

[13] = test system: pigweed (Amaranthus retroflexus); assay: Test A preemergence, pigweed; conditions: 0 to 100 scale (0 no effect, 100 complete control)
In short: as §2

[14] = test system: velvetleaf (Abutilon theophrasti); assay: Test A preemergence, velvetleaf; conditions: 0 to 100 scale (0 no effect, 100 complete control)
In short: as §2

[15] = test system: woolly cupgrass (Eriochloa villosa); assay: Test B preemergence, woolly cupgrass; conditions: scale 0 to 100
In short: as §1

[16] = test system: catchweed bedstraw (Galium aparine); assay: Test B preemergence, catchweed bedstraw; conditions: scale 0 to 100
In short: as §1

corn (Zea mays) [17] = assay: Test B preemergence, corn; conditions: scale 0 to 100
In short: as §1

[18] = test system: barnyardgrass (Echinochloa crus-galli); assay: Test A postemergence, barnyardgrass; conditions: 0 to 100 scale (0 no effect, 100 complete control)
In short: as §2

CC1(C)CC(S(=O)(=O)Cc2c(C(F)(F)Cl)nc3n(c2=O)CCC3)=NO1 [Compound 18]
Plant response rating, Nightshade ([1]; 16 g ai/ha): 0 | Plant response rating, Nightshade ([1]; 31 g ai/ha): 0 | Plant response rating, Nightshade ([1]; 62 g ai/ha): 0 | Plant response rating, Nightshade ([1]; 125 g ai/ha): 95 | Plant response rating, Crabgrass, Large ([2]; 16 g ai/ha): 0 | Plant response rating, Crabgrass, Large ([2]; 31 g ai/ha): 70 | Plant response rating, Crabgrass, Large ([2]; 62 g ai/ha): 90 | Plant response rating, Crabgrass, Large ([2]; 125 g ai/ha): 100 | Plant response rating, Bermudagrass ([3]; 16 g ai/ha): 0 | Plant response rating, Bermudagrass ([3]; 31 g ai/ha): 98 | Plant response rating, Bermudagrass ([3]; 62 g ai/ha): 100 | Plant response rating, Bermudagrass ([3]; 125 g ai/ha): 100 | Plant response rating, Foxtail, Giant ([4]; 16 g ai/ha): 0 | Plant response rating, Foxtail, Giant ([4]; 31 g ai/ha): 80 | Plant response rating, Foxtail, Giant ([4]; 62 g ai/ha): 85 | Plant response rating, Foxtail, Giant ([4]; 125 g ai/ha): 98 | Plant response rating, Corn (corn (Zea mays) [5]; 125 g ai/ha): 0 | Plant response rating, Corn (corn (Zea mays) [5]; 500 g ai/ha): 40 | Plant response rating, Johnsongrass ([6]; 16 g ai/ha): 15 | Plant response rating, Johnsongrass ([6]; 31 g ai/ha): 20 | Plant response rating, Johnsongrass ([6]; 62 g ai/ha): 60 | Plant response rating, Johnsongrass ([6]; 125 g ai/ha): 85 | Plant response rating, Blackgrass ([7]; 16 g ai/ha): 0 | Plant response rating, Blackgrass ([7]; 31 g ai/ha): 0 | Plant response rating, Blackgrass ([7]; 62 g ai/ha): 10 | Plant response rating, Blackgrass ([7]; 125 g ai/ha): 98 | Plant response rating, Foxtail, Green ([8]; 16 g ai/ha): 30 | Plant response rating, Foxtail, Green ([8]; 31 g ai/ha): 80 | Plant response rating, Foxtail, Green ([8]; 62 g ai/ha): 98 | Plant response rating, Foxtail, Green ([8]; 125 g ai/ha): 98 | Plant response rating, Oat, Wild (wild oat (Avena fatua); 16 g ai/ha): 0 | Plant response rating, Oat, Wild (wild oat (Avena fatua); 31 g ai/ha): 0 | Plant response rating, Oat, Wild (wild oat (Avena fatua); 62 g ai/ha): 0 | Plant response rating, Oat, Wild (wild oat (Avena fatua); 125 g ai/ha): 45 | Plant response rating, Morningglory ([9]; 16 g ai/ha): 0 | Plant response rating, Morningglory ([9]; 31 g ai/ha): 0 | Plant response rating, Morningglory ([9]; 62 g ai/ha): 0 | Plant response rating, Morningglory ([9]; 125 g ai/ha): 45 | Plant response rating, Nutsedge, Yellow ([10]; 16 g ai/ha): 0 | Plant response rating, Nutsedge, Yellow ([10]; 31 g ai/ha): 0 | Plant response rating, Nutsedge, Yellow ([10]; 62 g ai/ha): 20 | Plant response rating, Nutsedge, Yellow ([10]; 125 g ai/ha): 45 | Plant response rating, Sedge, Umbrella ([11]; 31 g ai/ha): 0 | Plant response rating, Sedge, Umbrella ([11]; 62 g ai/ha): 0 | Plant response rating, Sedge, Umbrella ([11]; 125 g ai/ha): 0 | Plant response rating, Sedge, Umbrella ([11]; 250 g ai/ha): 0 | Plant response rating, Wheat ([12]; 125 g ai/ha): 0 | Plant response rating, Wheat ([12]; 500 g ai/ha): 60 | Plant response rating, Pigweed ([13]; 125 g ai/ha): 60 | Plant response rating, Pigweed ([13]; 500 g ai/ha): 100 | Plant response rating, Velvetleaf ([14]; 125 g ai/ha): 0 | Plant response rating, Velvetleaf ([14]; 500 g ai/ha): 60 | Plant response rating, Cupgrass, Woolly ([15]; 16 g ai/ha): 0 | Plant response rating, Cupgrass, Woolly ([15]; 31 g ai/ha): 20 | Plant response rating, Cupgrass, Woolly ([15]; 62 g ai/ha): 65 | Plant response rating, Cupgrass, Woolly ([15]; 125 g ai/ha): 95 | Plant response rating, Galium ([16]; 62 g ai/ha): 0 | Plant response rating, Galium ([16]; 125 g ai/ha): 0 | Plant response rating, Corn (corn (Zea mays) [17]; 16 g ai/ha): 0 | Plant response rating, Corn (corn (Zea mays) [17]; 31 g ai/ha): 0 | Plant response rating, Corn (corn (Zea mays) [17]; 62 g ai/ha): 0 | Plant response rating, Corn (corn (Zea mays) [17]; 125 g ai/ha): 0 | Plant response rating, Barnyardgrass ([18]; 125 g ai/ha): 80 | Plant response rating, Barnyardgrass ([18]; 500 g ai/ha): 80

CC1(C)CC(S(=O)(=O)Cc2c(C(F)(F)F)nc3n(c2=O)CCO3)=NO1 [Compound 2, 6-[[(4,5-dihydro-5,5-dimethyl-3-isoxazolyl)sulfonyl]methyl]-2,3-dihydro-7-(trifluoromethyl)-5H-oxazolo[3,2-α]pyrimidin-5-one]
Plant response rating, Nightshade ([1]; 8 g ai/ha): 0 | Plant response rating, Nightshade ([1]; 16 g ai/ha): 0 | Plant response rating, Nightshade ([1]; 31 g ai/ha): 0 | Plant response rating, Nightshade ([1]; 62 g ai/ha): 0 | Plant response rating, Crabgrass, Large ([2]; 8 g ai/ha): 0 | Plant response rating, Crabgrass, Large ([2]; 16 g ai/ha): 65 | Plant response rating, Crabgrass, Large ([2]; 31 g ai/ha): 80 | Plant response rating, Crabgrass, Large ([2]; 62 g ai/ha): 90 | Plant response rating, Bermudagrass ([3]; 8 g ai/ha): 0 | Plant response rating, Bermudagrass ([3]; 16 g ai/ha): 0 | Plant response rating, Bermudagrass ([3]; 31 g ai/ha): 75 | Plant response rating, Bermudagrass ([3]; 62 g ai/ha): 85 | Plant response rating, Foxtail, Giant ([4]; 8 g ai/ha): 0 | Plant response rating, Foxtail, Giant ([4]; 16 g ai/ha): 50 | Plant response rating, Foxtail, Giant ([4]; 31 g ai/ha): 70 | Plant response rating, Foxtail, Giant ([4]; 62 g ai/ha): 98 | Plant response rating, Corn (corn (Zea mays) [5]; 125 g ai/ha): 0 | Plant response rating, Corn (corn (Zea mays) [5]; 500 g ai/ha): 50 | Plant response rating, Johnsongrass ([6]; 8 g ai/ha): 0 | Plant response rating, Johnsongrass ([6]; 16 g ai/ha): 10 | Plant response rating, Johnsongrass ([6]; 31 g ai/ha): 30 | Plant response rating, Johnsongrass ([6]; 62 g ai/ha): 80 | Plant response rating, Blackgrass ([7]; 8 g ai/ha): 0 | Plant response rating, Blackgrass ([7]; 16 g ai/ha): 0 | Plant response rating, Blackgrass ([7]; 31 g ai/ha): 0 | Plant response rating, Blackgrass ([7]; 62 g ai/ha): 50 | Plant response rating, Foxtail, Green ([8]; 8 g ai/ha): 0 | Plant response rating, Foxtail, Green ([8]; 16 g ai/ha): 10 | Plant response rating, Foxtail, Green ([8]; 31 g ai/ha): 55 | Plant response rating, Foxtail, Green ([8]; 62 g ai/ha): 85 | Plant response rating, Oat, Wild (wild oat (Avena fatua); 8 g ai/ha): 0 | Plant response rating, Oat, Wild (wild oat (Avena fatua); 16 g ai/ha): 0 | Plant response rating, Oat, Wild (wild oat (Avena fatua); 31 g ai/ha): 0 | Plant response rating, Oat, Wild (wild oat (Avena fatua); 62 g ai/ha): 25 | Plant response rating, Morningglory ([9]; 8 g ai/ha): 0 | Plant response rating, Morningglory ([9]; 16 g ai/ha): 0 | Plant response rating, Morningglory ([9]; 31 g ai/ha): 0 | Plant response rating, Morningglory ([9]; 62 g ai/ha): 0 | Plant response rating, Nutsedge, Yellow ([10]; 8 g ai/ha): 0 | Plant response rating, Nutsedge, Yellow ([10]; 16 g ai/ha): 0 | Plant response rating, Nutsedge, Yellow ([10]; 31 g ai/ha): 0 | Plant response rating, Nutsedge, Yellow ([10]; 62 g ai/ha): 0 | Plant response rating, Sedge, Umbrella ([11]; 62 g ai/ha): 0 | Plant response rating, Sedge, Umbrella ([11]; 250 g ai/ha): 0 | Plant response rating, Wheat ([12]; 125 g ai/ha): 0 | Plant response rating, Wheat ([12]; 500 g ai/ha): 60 | Plant response rating, Pigweed ([13]; 125 g ai/ha): 20 | Plant response rating, Pigweed ([13]; 500 g ai/ha): 60 | Plant response rating, Velvetleaf ([14]; 125 g ai/ha): 10 | Plant response rating, Velvetleaf ([14]; 500 g ai/ha): 90 | Plant response rating, Cupgrass, Woolly ([15]; 8 g ai/ha): 0 | Plant response rating, Cupgrass, Woolly ([15]; 16 g ai/ha): 75 | Plant response rating, Cupgrass, Woolly ([15]; 31 g ai/ha): 75 | Plant response rating, Cupgrass, Woolly ([15]; 62 g ai/ha): 95 | Plant response rating, Galium ([16]; 8 g ai/ha): 0 | Plant response rating, Galium ([16]; 16 g ai/ha): 100 | Plant response rating, Galium ([16]; 31 g ai/ha): 100 | Plant response rating, Galium ([16]; 62 g ai/ha): 100 | Plant response rating, Corn (corn (Zea mays) [17]; 8 g ai/ha): 0 | Plant response rating, Corn (corn (Zea mays) [17]; 16 g ai/ha): 0 | Plant response rating, Corn (corn (Zea mays) [17]; 31 g ai/ha): 0 | Plant response rating, Corn (corn (Zea mays) [17]; 62 g ai/ha): 20 | Plant response rating, Barnyardgrass ([18]; 125 g ai/ha): 70 | Plant response rating, Barnyardgrass ([18]; 500 g ai/ha): 80
